Reference: patent US20230355549A1, “METHOD OF PREVENTING KIDNEY INJURY DISRUPTION OF INTESTINAL LYMPHATICS” (Vanderbilt University, priority 2020, published 2023)
Counter-ions that a name gives are not always drawn.

Experiments:
Sprague Dawley rats = details: rat, in vivo, ip, 125 mg/kg
Protocol: Adult male Sprague Dawley rats (200-225 g, Charles River) were housed under a 12-h light/dark cycle with free access to normal rat chow and water. Kidney injury was induced by a single injection of puromycin […] (PAN) (125 mg/kg body weight, i.p.) while saline-injected rats served as controls (Cont). Eight days after injection, rats were sacrificed and blood, urine, and tissues were harvested. We also studied adult male (12 weeks old) Nphs1-hCD25 transgenic (NEP25, C57 bl/6 background) mice expressing human CD25 on podocytes can be selectively injured by injection of recombinant immunotoxin, anti-Tac (Fv)-PE38 (LMB2, 1 ng/g BW, i.v. generously provided by Dr. Ira Pastan) that results in proteinuria. These and wild type control mice were housed under normal conditions with free access to regular rodent chow and water. Two weeks after LMB2, mice were sacrificed and blood, urine and tissues harvested. All animal procedures were approved by the Institutional Animal Care and Use Committee at Vanderbilt University.
Mesenteric lymph was collected in a subset of conscious rats following cannulation of the mesenteric lymph duct. The rats were placed in Bollman cages in a temperature- and humidity-controlled incubator and lymph collected hourly for at least 3 h.
(§1) Albumin (Exocell), apoAI (Mybiosource), sphingosine-1 phosphate (S1P) (Mybiosource) and VEGF-C levels (Mybiosource) were measured by ELISA. Albuminuria was measured as urine albumin-to-creatinine ratio (ACR) (Nephrat II, Exocell) and QuantiChrom™ Creatinine Assay Kit (Bioassay Systems), respectively. Plasma and lymph total cholesterol and triglycerides were measured enzymatically (Cliniqa). HDL and LDL fractions were isolated from plasma and lymph by density-gradient ultracentrifugation after adjustment with potassium bromide. Lipoprotein particle size was evaluated by NMR methodology (Liposcience). Colorimetric assays were used to measure protein (BCA, ThermoFisher). Lipoproteins in plasma and lymph were separated by size-exclusion chromatography (SEC) using an Akta Pure fast-protein liquid chromatography (FPLC) system (GE Healthcare). Total IsoLG-protein adduct by LC/MS was measured as IsoLG-lysine after complete proteolytic digestion of lymph samples.

ileal organoids = test: IsoLG adduct production in cultured ileal organoids (enteroids); type: cell-based; details: 1 mmol/L, 3 days, vs vehicle, FIG. 4C
Protocol: as §1
Intact perfused intestine was used to generate ileal organoids. Cultured ileal organoids were incubated in medium with or without indoxyl sulfate (1 mmol/L, Sigma) for 3 days. Total protein was extracted for quantitation of IsoLG.

[1] = system: Primary adult dermal lymphatic endothelial cells (LECs); test: Cultured lymphatic endothelial cells (LECs) exposed to IsoLG-modified apoAI; type: cell-based; details: apoAI 10 μg/ml, IsoLG 1 μM/L, 18 h, vs unmodified apoAI
Protocol: Primary adult dermal lymphatic endothelial cells (LECs) (HMVEC-DLyAd, Lonza) were cultured with conditioned growth medium (Lonza). Cells at passage 5-6 with ˜70% confluence were starved in serum-free medium overnight, then incubated with unmodified or IsoLG-modified apoAI (apoAI: 10 μg/ml, IsoLG: 1 μM/L) for 18 h. […] Quantification of eNOS (Nos3) and β-actin (ACTB) mRNA was performed by RT-PCR and production of superoxide was assessed by high-performance liquid chromatography.

[2] = system: isolated mesenteric lymphatic vessels; test: Lymphatic dynamics ex vivo, isolated mesenteric lymphatic vessels
Protocol: Mesenteric lymphatic vessels were collected and mounted in a perfusion chamber. Chambers were placed on inverted microscopes equipped with a digital image capture system (IonOptix) to record pre-valve intraluminal diameters and frequency of contractions. Vessels were warmed to 37° C., pressurized to 0.5 mmHg using a column of Krebs buffer, and allowed to equilibrate (20-60 minutes). Viable vessels were then pressurized in a stepwise manner to a constant pressure of 3.5 mmHg, then exposed to purified apoAI or modified apoAI using 1 molar equivalent synthetic IsoLG or vehicle (DMSO). Fresh Krebs buffer was circulated to facilitate wash out. Next vessels were exposed to IsoLG-modified apoAI. After each challenge, lumen diameters were allowed to plateau (40-60 minutes).

THP-1 cells = test: VEGFC mRNA in THP-1 derived macrophages; type: cell-based; details: apoAI 10 μg/ml, IsoLG 1 μM/L, 48 h, vs unmodified apoAI, FIG. 6D
Protocol: THP-1 cells were plated and differentiated into macrophages by […] containing 10% FBS and 50 ng/ml phorbol 12-myristate 13-acetate for 3 days. Cells were incubated with unmodified or IsoLG-modified apoAI (apoAI: 10 μg/ml, IsoLG: 1 μM/L) for 48 h. VEGFC mRNA was assessed by RT-PCR.

CN(C)c1ncnc2c1ncn2[C@@H]1O[C@H](CO)[C@@H](N)[C@H]1O [PAN, puromycin aminoglycoside]
ACR (albumin/creatinine concentration ratio) (Sprague Dawley rats): 126.652 ± 13.283 mg/mg | Plasma Albumin (Sprague Dawley rats): 350.7 ± 27.3 mg/dL | Plasma Cholesterol (Sprague Dawley rats): 236.6 ± 36.8 mg/dL | Plasma Triglyceride (Sprague Dawley rats): 132.1 ± 19.2 mg/dL

O=S(=O)(O)Oc1c[nH]c2ccccc12 [indoxyl sulfate]
IsoLG adduct production (ileal organoids): significantly increased

IsoLG-apoAI: purified apoAI modified using 1 molar equivalent synthetic IsoLG
production of ROS ([1]; FIG. 5A): significantly greater production of ROS | eNOS (Nos3) gene expression ([1]; FIG. 5B): increased Nos3 | end-systolic diameter (ESD) ([2]; FIG. 5D): failed to significantly alter | end-diastolic diameter (EDD) ([2]; FIG. 5E): significantly decreased | amplitude of contraction ([2]; FIG. 5F): significantly reduced | frequency of contractions ([2]; vs unmodified apoAI, FIG. 5C): increased frequency of contractions | VEGFC mRNA expression (THP-1 cells): significantly increased
